Experimental data taken from patent EP1071411B1, “TOPICAL IMMUNOSTIMULATION TO INDUCE LANGERHANS CELL MIGRATION” (TORREY PINES INSTITUTE FOR MOLECULAR STUDIES, priority 1998, dated 1999).

Legend:
[1] = test system: EL4 tumor cells; assay: Specificity control of intravaginal topical vaccination, parent tumor challenge; assay type: in vivo, C57BL/6; conditions: intravaginal topical application, SIINFEKL in acetone and dibutylphthalate; Figure 5
Text: (§1) The C57BL/6 thymoma tumor cell line, EL4, was transfected with the complete gene for chicken ovalbumin (OVA). The resulting transfected cell line, EG7-OVA, expresses chicken ovalbumin. […] Based on the positive results using FITC, the inventors followed a similar protocol in an attempt to induce immunity to the EG7-OVA tumor by topical administration of the well-characterized, synthetic […] tumor-associated peptide.
(§2) The mucous membranes lack the tough barrier posed by the stratum corneum. […] The EL4 parent tumor cell line, lacking chicken ovalbumin, was used as a […]; no immunity against the EL4 tumor cells was seen. Thus, the inventors' hypothesis regarding penetration of the stratum corneum was confirmed; the […] peptide was not reaching the Langerhans cells underlying the stratum corneum.

[2] = test system: EG7-OVA cells; assay: Tumor-specific immunity after topical vaccination, subcutaneous tumor challenge, tumor size; assay type: in vivo, C57BL/6; conditions: for inhibiting tumor cell growth: Figure 4
Method: as §1
C57BU6 mice were treated as follows: 1) shaving alone; 2) topical administration of acetone and dibutylphthalate; 3) […] (240 :g/ml) in DMSO diluted in PBS, followed in 5 hours by acetone and dibutylphthalate; and 4) […] (240 :g/ml) in acetone and dibutylphthalate. All mice were subsequently injected subcutaneously with 5 × 10^5 EG7-OVA cells (5-times the minimal tumorogenic dose). Tumor-specific immunity was monitored by measuring tumor size.
as §2
While intravaginal topical administration of tumor antigen provided an effective means of routing antigen to the Langerhans cells for subsequent induction of tumor-specific immunity, mucous membrane application sites, like the vagina, are not well-suited for convenient use and monitoring by general practitioners likely to be involved in administering the topical vaccinations of the present invention. Thus, to enhance the effectiveness of cutaneous topical administration, […] was dissolved in DMSO and applied to the skin without dilution. Dibutylphthalate in acetone was applied to the same site 5 hr later. All mice were subsequently injected subcutaneously with 5 x 10^5 EG7-OVA cells. The results shown in Figure 6 indicate that the peptide in DMSO was able to traverse the stratum corneum, effectively gaining access to the Langerhans cells. Tumor growth was suppressed after 6 to 9 days and even the established tumors were completely eliminated by 16 days post-inoculation. Thus, the tumor specific peptide, […], in concentrated DMSO, penetrated the stratum corneum, was incorporated into the MHC class I molecule K^b on epidermal Langerhans cells, and in the presence of the migration inducer, dibutylphthalate, was effectively presented to CD8+ CTLs in the lymph nodes.

[3] = test system: Langerhans cells; assay: FITC Langerhans cell migration screening, draining inguinal lymph node, flow cytometry; assay type: in vivo, C57BL/6 mice; conditions: for Total MHC class II^th cells, distance from the positive control, dibutylphthalate (DBP): 5 mg/ml FITC in acetone and migration inducer, 100 µl, after 2 days, Figure 7; for FITC+ Langerhans cell number / total dendritic cell migration into the lymph node / nonspecific immigration: agent added to topical FITC in acetone, 2 days after treatment, Figure 1
Text: Fluorescein isothiocyanate (FITC) has been used extensively by the inventor and others, to characterize Langerhans cell migration. FITC is a small (mw 389) non-peptide, largely lipophilic molecule, capable of crossing the stratum corneum. Immunogenicity of FITC is due to the reactivity of its isothiocyanate group (-N-C-S) with free amino groups, permitting it to be covalently bound to proteins and/or peptides. C57BL/6 mice received the following treatments: 1) none; 2) abdomen shaving only; 3) topical administration of FITC in acetone; 4) topical administration of FITC in acetone and olive oil; 5) topical administration of FITC in acetone and DMSO diluted in phosphate buffered saline (PBS); and 6) topical administration of FITC in acetone and dibutylphthalate. The draining inguinal lymph nodes were then examined for immigrant Langerhans cells by immunofluorescent flow cytometry each day thereafter. Migratory Langerhans cells were identified by the presence of FITC and expression of high MHC class II molecules or by a Langerhans cell-specific monoclonal antibody (NLDC-145). Other dendritic cell residents of the lymph nodes could also be differentiated using a dendritic cell-specific monoclonal antibody, 33D1. The uptake of FITC and the Langerhans cell response to migratory signals were observable in the draining lymph node as early as six hours after topical administration. However, 48-72 hours was required for maximal rate of immigration into the lymph node. Figure 1 illustrates the effect of the various treatment regimens on total and FITC + lymphoid dendritic cells 2 days after treatment. […] Thus, dibutylphthalate was a very potent migration inducer.
High numbers of FITC+ Langerhans cells were present in the lymph node by 12 hours and the peak frequency of immigrant FITC+ Langerhans cells occurred about 2 to 3 days following topical administration. […] The unlabeled dendritic cells were most likely Langerhans cells that had lost the FITC label. Five days after skin painting, the lymph node cell population had increased by approximately 7.2 fold over baseline levels.
Compounds which are useful as inducers of Langerhans cell migration may be screened using the standard FITC methods described for the data presented in Figures 1-3. C57BL6 mice are shaved on their abdomens and painted with 100 µl test solution, containing 5 mg/ml FITC in a 50150 (v/v) mixture of acetone and the migration inducer (e.g. dibutylphthalate). After 2 days, the draining inguinal lymph node is removed and the total number of dendritic cells (both FITC+ and FITC-) is determined by flow cytometry and MHC class II immunoassay.

[4] = iontophoresis; cited from earlier work

## CC[C@H](C)[C@H](NC(=O)[C@@H](NC(=O)[C@@H](N)CO)[C@@H](C)CC)C(=O)N[C@@H](CC(N)=O)C(=O)N[C@@H](Cc1ccccc1)C(=O)N[C@@H](CCC(=O)O)C(=O)N[C@@H](CCCCN)C(=O)N[C@@H](CC(C)C)C(=O)O
[1]
  immunity against the EL4 tumor cells: no immunity
[2]; cutaneous, SIINFEKL (240 :g/ml) in DMSO diluted in PBS, followed in 5 hours by acetone and dibutylphthalate
  inhibiting tumor cell growth: none of the treatment protocols were effective
[2]; cutaneous, SIINFEKL (240 :g/ml) in acetone and dibutylphthalate
  inhibiting tumor cell growth: none of the treatment protocols were effective
[2]; cutaneous, SIINFEKL in undiluted DMSO, dibutylphthalate in acetone at same site 5 hr later, Figure 6
  time by which established tumors were completely eliminated: ≤ 16 days post-inoculation
[2]; intravaginal topical application, SIINFEKL in acetone and dibutylphthalate, Figure 5
  protection against the tumor: complete protection

## CC12CCC(CC1=O)C2(C)C (stereo not shown) [C, camphor]
[3]
  Total MHC class II^th cells, distance from the positive control, dibutylphthalate (DBP): ≤ 1 standard deviation

## CCCCOC(=O)[C@@H](O)[C@H](O)C(=O)OCCCC [DBT, dibutyl-D-tartrate]
[3]
  Total MHC class II^th cells, distance from the positive control, dibutylphthalate (DBP): ≤ 1 standard deviation

## C[S+](C)[O-] [DMSO, dimethylsulfoxide]
[3]
  FITC+ Langerhans cell number: no enhancement
  total dendritic cell migration into the lymph node / nonspecific immigration: modest stimulatory effect

## CCCCCCCCCOC(=O)c1ccccc1C(=O)OCCCCCCCCC [DNP, dinonylphthalate]
[3]
  Total MHC class II^th cells, distance from the positive control, dibutylphthalate (DBP): ≤ 1 standard deviation

## CCCCOC(=O)c1ccccc1C(=O)OCCCC [dibutylphthalate]
[2]; cutaneous topical acetone and dibutylphthalate without peptide, 5 × 10^5 EG7-OVA cells s.c.
  inhibiting tumor cell growth: none of the treatment protocols were effective
[3]
  FITC+ Langerhans cell number: striking effect
  total dendritic cell migration into the lymph node / nonspecific immigration: striking effect

## NC(=O)CC[C@@H]1NC(=O)[C@H](Cc2ccccc2)NC(=O)[C@H](Cc2ccc(O)cc2)NC(=O)[C@@H](N)CSSC[C@@H](C(=O)N2CCC[C@H]2C(=O)N[C@@H](CCCN=C(N)N)C(=O)NCC(N)=O)NC(=O)[C@H](CC(N)=O)NC1=O [vassopressin]
[4]
  fraction that crossed the stratum corneum: about 0.4 % per hour

## Fluorescein isothiocyanate [FITC]
[3]; after topical administration
  time required for maximal rate of immigration into the lymph node: 48 to 72 h

## dibenzylbutylphthalate [DBBP]
[3]
  Total MHC class II^th cells, distance from the positive control, dibutylphthalate (DBP): ≤ 1 standard deviation
